Laboratory results reported in PubChem BioAssay AID1918933 (Molecular Pharmacology Branch, DTP, NCI, 2023).
Values joined by “and” are separate entries in the source; they are usually repeats but may differ in a detail not shown here. Identical values can stand only once.

System: 186277-243-T-J2-PDC complex spheroid viability
Assay: Anticancer human tumor 186277-243-T-J2-PDC patient-derived colon adenocarcinoma cell line growth inhibition
Conditions: for viability, T/C: stronger effect = lower value
Text: Multicellular complex tumor spheroid response to LSD1 Inhibitor Iadademstat in combination with a variety of drugs and investigational agents in selected tumor cell lines
The current study was undertaken to assess response to LSD1 inhibitors in combination with standard-of-care drugs and investigational agents in solid tumor complex spheroid models as well as in the K-562 leukemia. Complex spheroids include a stromal component modeled by human endothelial cells (HUVEC) and fibroblasts modeled by human mesenchymal stem cells (MSCs). The concentration ranges selected for each drug and investigational agent were based upon clinically achievable concentrations if the clinical Cmax of the agent was known.
Compounds. The drugs and investigational agents used in this study are listed on Table 1. All of the agents used, including staurosporine (NSC755774) and gemcitabine (NSC613327), were obtained from the Developmental Therapeutics Program, NCI. FDA-approved anticancer drugs are available from the NCI at http://dtp.nci.nih.gov/branches/dscb/oncology_drugset_explanation.html. Drugs and investigational agents were >95% pure by proton nuclear magnetic resonance (NMR) and liquid chromatography/mass spectrometry (LC/MS). Stock solutions were prepared at 400x in DMSO, stored at -70 degrees C, and diluted in fresh medium prior to their use. The final concentration of DMSO in cell culture wells never exceeded 0.25% (v/v). The FDA-approved anticancer drug set is available from the Developmental Therapeutics Program at https://dtp.cancer.gov/organization/dscb/obtaining/available_plates.htm. All drugs and investigational agents were tested over a range starting from a high concentration at or near the clinical Cmax and decreasing in half-log increments. If the clinical Cmax for an agent had not been determined, the highest concentration tested was 10 microM.
Cell Lines. The patient-derived cancer cell (PDC) lines: 292921-168-R-J2-PDC, K24384-001-R-PDC, and 521955-158-R2-J5-PDC pancreatic carcinomas, 556581-035-R-J1 ovarian carcinoma, 324938-238-R-J1-PDC, 855422-203-R-J1-PDC and 883617-216-R-J1-PDC urothelial bladder carcinomas, 743489-274-T-PDC renal cell carcinoma, 138582-R-J1 Merkel cell tumor, K60290-347-R-J1 and K57222-313-R-J1-PDC glioblastomas, 653999-131-R-J2-PDC, LG0703-F948-PDC, and 349418-098-R-PDC non-small cell lung carcinomas, 885512-296-R-J2-PDC, 171881-019-R-J1-PDC breast carcinomas and 186277-243-T-J2-PDC and 233499-124-R-J2-PDC colon carcinomas were obtained from the NCI Patient-Derived Models Repository (PDMR, https://pdmr.cancer.gov). The established cell lines NCI/ADR-RES (RRID:CVCL_14520 and OVCAR-5 (RRID:CVCL_1628) ovarian carcinomas, 786-O (RRID:CVCL_1051) and A498 (RRID:CVCL_A498) renal cell carcinoma, NCI-H211 (ATCC, cat. CRL-5824; RRID:CVCL_1529), NCI-H196 (ATCC, cat. CRL-5823, RRID:CVCL_1509), SW 1271 (ATCC, cat. CRL-2177, RRID:CVCL_1716) and NCI-H1876 (ATCC, cat. CRL-5902, RRID:CVCL_1503) small cell lung carcinomas, MDA-MB-231 (RRID:CVCL_0062) and MDA-MB-468 (RRID:CVCL_0419)breast carcinomas (10-12). Pooled donor human umbilical vein endothelial cells (HUVEC, Lonza, cat. CC-2519) and human mesenchymal stem cells (hMSC, Lonza, cat. PT-2501) were purchased from Lonza (Walkersville, MD).
Cell Culture. All cells were maintained in an incubator at 37 degrees C and 5% CO2 with 95% humidity. The PDC lines were cultured according to standard operating procedures established by the NCI PDMR (https://pdmr.cancer.gov). Briefly all PDCs were thawed and cultured in Matrigel-coated flasks prepared with a working solution of 1X Ham's F-12 nutrient mix, without supplementation (Invitrogen, Waltham, MA, cat. 11765054), 100 U/mL penicillin-streptomycin (Invitrogen, cat. 15140122), and 2.5% Matrigel (Corning Inc., Corning, NY, cat. 354248) for the first three passages. […]

[1] = curve of first compound, second compound 0.1 µM
[2] = curve of first compound, second compound 0.316 µM
[3] = curve of first compound, second compound 1 µM
[4] = curve of first compound, second compound 3.16 µM
[5] = curve of first compound, second compound 10 µM
[6] = second compound 0.1 µM, first compound 0.000949 µM
[7] = second compound 0.1 µM, first compound 0.003 µM
[8] = second compound 0.1 µM, first compound 0.00949 µM
[9] = second compound 0.1 µM, first compound 0.03 µM
[10] = second compound 0.1 µM, first compound 0.0949 µM
[11] = second compound 0.1 µM, first compound 0.3 µM
[12] = second compound 0.316 µM, first compound 0.000949 µM
[13] = second compound 0.316 µM, first compound 0.003 µM
[14] = second compound 0.316 µM, first compound 0.00949 µM
[15] = second compound 0.316 µM, first compound 0.03 µM
[16] = second compound 0.316 µM, first compound 0.0949 µM
[17] = second compound 0.316 µM, first compound 0.3 µM
[18] = second compound 1 µM, first compound 0.000949 µM
[19] = second compound 1 µM, first compound 0.003 µM
[20] = second compound 1 µM, first compound 0.00949 µM
[21] = second compound 1 µM, first compound 0.03 µM
[22] = second compound 1 µM, first compound 0.0949 µM
[23] = second compound 1 µM, first compound 0.3 µM
[24] = second compound 3.16 µM, first compound 0.000949 µM
[25] = second compound 3.16 µM, first compound 0.003 µM
[26] = second compound 3.16 µM, first compound 0.00949 µM
[27] = second compound 3.16 µM, first compound 0.03 µM
[28] = second compound 3.16 µM, first compound 0.0949 µM
[29] = second compound 3.16 µM, first compound 0.3 µM
[30] = second compound 10 µM, first compound 0.000949 µM
[31] = second compound 10 µM, first compound 0.003 µM
[32] = second compound 10 µM, first compound 0.00949 µM
[33] = second compound 10 µM, first compound 0.03 µM
[34] = second compound 10 µM, first compound 0.0949 µM
[35] = second compound 10 µM, first compound 0.3 µM
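Also: 7 day exposure to compounds.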
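For viability, T/C in this document: 100% = DMSO vehicle control viability.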

Nc1ncn(C2CC(O)C(CO)S2)c(=O)n1 (configuration not stated) + NC1CC1c1ccc(-c2cccc(O)c2)cc1
IC50 [1]: 105 nM
IC50 [2]: 88.8 nM
IC50 [3]: 91.4 nM
IC50 [4]: 97.4 nM
IC50 [5]: 79.5 nM
viability, T/C [6]: 113%
viability, T/C [7]: 123%
viability, T/C [8]: 125%
viability, T/C [9]: 143%
viability, T/C [10]: 53.8%
viability, T/C [11]: 10.9%
viability, T/C [12]: 103%
viability, T/C [13]: 119%
viability, T/C [14]: 110%
viability, T/C [15]: 129%
viability, T/C [16]: 46%
viability, T/C [17]: 9.74%
viability, T/C [18]: 102%
viability, T/C [19]: 106%
viability, T/C [20]: 130%
viability, T/C [21]: 128%
viability, T/C [22]: 47.7%
viability, T/C [23]: 10.7%
viability, T/C [24]: 113%
viability, T/C [25]: 111%
viability, T/C [26]: 105%
viability, T/C [27]: 137%
viability, T/C [28]: 50.9%
viability, T/C [29]: 10.3%
viability, T/C [30]: 93.8%
viability, T/C [31]: 94.1%
viability, T/C [32]: 104%
viability, T/C [33]: 107%
viability, T/C [34]: 41%
viability, T/C [35]: 8.69%

NC1CCC(NC2CC2c2ccccc2)CC1 (configuration not stated)
viability, T/C (compound 0.316 µM): 104% and 114%
IC50 (compound alone, run of 01/18/2022): > 10000 nM

CCc1c2c(nc3ccc(O)cc13)-c1cc3c(c(=O)n1C2)COC(=O)[C@]3(O)CC + NC1CCC(NC2CC2c2ccccc2)CC1
IC50 [1]: 2.11 nM
IC50 [2]: 2.07 nM
IC50 [3]: 2.69 nM
IC50 [4]: 3.63 nM
IC50 [5]: 2.87 nM
viability, T/C [6]: 63%
viability, T/C [7]: 40.7%
viability, T/C [8]: 33.6%
viability, T/C [9]: 17.5%
viability, T/C [10]: 1.51%
viability, T/C [11]: 0.43%
viability, T/C [12]: 62.7%
viability, T/C [13]: 42.2%
viability, T/C [14]: 30.1%
viability, T/C [15]: 19.3%
viability, T/C [16]: 1.53%
viability, T/C [17]: 0.53%
viability, T/C [18]: 65.7%
viability, T/C [19]: 43.1%
viability, T/C [20]: 38.1%
viability, T/C [21]: 20.4%
viability, T/C [22]: 1.56%
viability, T/C [23]: 0.4%
viability, T/C [24]: 71.2%
viability, T/C [25]: 49.2%
viability, T/C [26]: 38.2%
viability, T/C [27]: 20.8%
viability, T/C [28]: 1.23%
viability, T/C [29]: 0.47%
viability, T/C [30]: 80.1%
viability, T/C [31]: 44.5%
viability, T/C [32]: 32.6%
viability, T/C [33]: 15.5%
viability, T/C [34]: 1.74%
viability, T/C [35]: 1.75%
